Results taken from patent US9138408B2, “Use of taurine for treating alopecia” (L'OREAL, priority 2002, dated 2015).
“Also recorded” adds a separate entry of the source.

System: normal human dermal fibroblasts (NHDF pool PF2)
Assay: Incorporation of thymidine, proline and leucine in macromolecules neosynthesized by fibroblasts in culture
Assay type: cell-based
Conditions: for Leucine incorporation / Proline incorporation / Thymidine incorporation: NHDF in vitro culture
Procedure: A study was performed with the aim of evaluating, via a screening method, the effects of the compounds on the growth of fibroblasts and the synthesis of the major constituents of the extracellular matrix. The technique made it possible to study and evaluate the advantage of taurine on this cell metabolism (T. Shigematsu et al. Biochimica et Biophysica Acta 1200 (1994) 79-83).
A pool of normal human dermal fibroblasts (NHDF pool PF2, used at the eighth passage) was cultured under standard conditions in a medium: DMEM, 2 mM L-glutamine, 50 IU/ml/50 […] penicillin/streptomycin, 0.5% fetal calf serum.
Taurine was tested at concentrations of 10 mM and 1 mM in a sterile culture medium, against an untreated control blank.
The figures in bold are those for which there is a significant variation (stat. sign. meaning statistical significance: p<0.005). The results are expressed as a percentage of the control.

[1] = at the two concentrations (1 mM, 10 mM), fibroblasts

SMILES: NCCS(=O)(=O)O [taurine, Taurine]
- Leucine incorporation (1 mM taurine): 100 % control
- Proline incorporation (1 mM taurine): 88 % control
- Thymidine incorporation (1 mM taurine): 89 % control
- Leucine incorporation (10 mM taurine): 105 % control
- Proline incorporation (10 mM taurine): 87 % control
- Thymidine incorporation (10 mM taurine): 90 % control
- incorporation of leucine (representative of noncollagen protein synthesis), in words [1]: did not significantly modify; also recorded: without impairing that of leucine
- incorporation of proline by the fibroblasts, in words [1]: did significantly inhibit; also recorded: reduces the incorporation of proline
- incorporation of thymidine (representative of cell proliferation), in words [1]: did not significantly modify
